This passage reports inhibition results from PMC6934184, “Selective DNA-PKcs inhibition extends the therapeutic index of localized radiotherapy and chemotherapy” (The Journal of Clinical Investigation, 2019).

This assay has as its target T1, LRRK2 I2020T (Homo sapiens, UniProt Q5S007, I2020T).
T1 construct: purchased Thermo Fisher Scientific (Life Technologies) SelectScreen
Nature of the assay: SelectScreen Adapta. The assay is classed as biochemical. The method in brief: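 SelectScreen broad panel; activity (Z'LYTE, Adapta) plus binding formats. ATP: Km app for CSF1R Z'LYTE; 10 for CAMK1 Adapta. Readout = % per kinase.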

Structures are written as SMILES.

T1 sequence (Q5S007 whole entry I2020T): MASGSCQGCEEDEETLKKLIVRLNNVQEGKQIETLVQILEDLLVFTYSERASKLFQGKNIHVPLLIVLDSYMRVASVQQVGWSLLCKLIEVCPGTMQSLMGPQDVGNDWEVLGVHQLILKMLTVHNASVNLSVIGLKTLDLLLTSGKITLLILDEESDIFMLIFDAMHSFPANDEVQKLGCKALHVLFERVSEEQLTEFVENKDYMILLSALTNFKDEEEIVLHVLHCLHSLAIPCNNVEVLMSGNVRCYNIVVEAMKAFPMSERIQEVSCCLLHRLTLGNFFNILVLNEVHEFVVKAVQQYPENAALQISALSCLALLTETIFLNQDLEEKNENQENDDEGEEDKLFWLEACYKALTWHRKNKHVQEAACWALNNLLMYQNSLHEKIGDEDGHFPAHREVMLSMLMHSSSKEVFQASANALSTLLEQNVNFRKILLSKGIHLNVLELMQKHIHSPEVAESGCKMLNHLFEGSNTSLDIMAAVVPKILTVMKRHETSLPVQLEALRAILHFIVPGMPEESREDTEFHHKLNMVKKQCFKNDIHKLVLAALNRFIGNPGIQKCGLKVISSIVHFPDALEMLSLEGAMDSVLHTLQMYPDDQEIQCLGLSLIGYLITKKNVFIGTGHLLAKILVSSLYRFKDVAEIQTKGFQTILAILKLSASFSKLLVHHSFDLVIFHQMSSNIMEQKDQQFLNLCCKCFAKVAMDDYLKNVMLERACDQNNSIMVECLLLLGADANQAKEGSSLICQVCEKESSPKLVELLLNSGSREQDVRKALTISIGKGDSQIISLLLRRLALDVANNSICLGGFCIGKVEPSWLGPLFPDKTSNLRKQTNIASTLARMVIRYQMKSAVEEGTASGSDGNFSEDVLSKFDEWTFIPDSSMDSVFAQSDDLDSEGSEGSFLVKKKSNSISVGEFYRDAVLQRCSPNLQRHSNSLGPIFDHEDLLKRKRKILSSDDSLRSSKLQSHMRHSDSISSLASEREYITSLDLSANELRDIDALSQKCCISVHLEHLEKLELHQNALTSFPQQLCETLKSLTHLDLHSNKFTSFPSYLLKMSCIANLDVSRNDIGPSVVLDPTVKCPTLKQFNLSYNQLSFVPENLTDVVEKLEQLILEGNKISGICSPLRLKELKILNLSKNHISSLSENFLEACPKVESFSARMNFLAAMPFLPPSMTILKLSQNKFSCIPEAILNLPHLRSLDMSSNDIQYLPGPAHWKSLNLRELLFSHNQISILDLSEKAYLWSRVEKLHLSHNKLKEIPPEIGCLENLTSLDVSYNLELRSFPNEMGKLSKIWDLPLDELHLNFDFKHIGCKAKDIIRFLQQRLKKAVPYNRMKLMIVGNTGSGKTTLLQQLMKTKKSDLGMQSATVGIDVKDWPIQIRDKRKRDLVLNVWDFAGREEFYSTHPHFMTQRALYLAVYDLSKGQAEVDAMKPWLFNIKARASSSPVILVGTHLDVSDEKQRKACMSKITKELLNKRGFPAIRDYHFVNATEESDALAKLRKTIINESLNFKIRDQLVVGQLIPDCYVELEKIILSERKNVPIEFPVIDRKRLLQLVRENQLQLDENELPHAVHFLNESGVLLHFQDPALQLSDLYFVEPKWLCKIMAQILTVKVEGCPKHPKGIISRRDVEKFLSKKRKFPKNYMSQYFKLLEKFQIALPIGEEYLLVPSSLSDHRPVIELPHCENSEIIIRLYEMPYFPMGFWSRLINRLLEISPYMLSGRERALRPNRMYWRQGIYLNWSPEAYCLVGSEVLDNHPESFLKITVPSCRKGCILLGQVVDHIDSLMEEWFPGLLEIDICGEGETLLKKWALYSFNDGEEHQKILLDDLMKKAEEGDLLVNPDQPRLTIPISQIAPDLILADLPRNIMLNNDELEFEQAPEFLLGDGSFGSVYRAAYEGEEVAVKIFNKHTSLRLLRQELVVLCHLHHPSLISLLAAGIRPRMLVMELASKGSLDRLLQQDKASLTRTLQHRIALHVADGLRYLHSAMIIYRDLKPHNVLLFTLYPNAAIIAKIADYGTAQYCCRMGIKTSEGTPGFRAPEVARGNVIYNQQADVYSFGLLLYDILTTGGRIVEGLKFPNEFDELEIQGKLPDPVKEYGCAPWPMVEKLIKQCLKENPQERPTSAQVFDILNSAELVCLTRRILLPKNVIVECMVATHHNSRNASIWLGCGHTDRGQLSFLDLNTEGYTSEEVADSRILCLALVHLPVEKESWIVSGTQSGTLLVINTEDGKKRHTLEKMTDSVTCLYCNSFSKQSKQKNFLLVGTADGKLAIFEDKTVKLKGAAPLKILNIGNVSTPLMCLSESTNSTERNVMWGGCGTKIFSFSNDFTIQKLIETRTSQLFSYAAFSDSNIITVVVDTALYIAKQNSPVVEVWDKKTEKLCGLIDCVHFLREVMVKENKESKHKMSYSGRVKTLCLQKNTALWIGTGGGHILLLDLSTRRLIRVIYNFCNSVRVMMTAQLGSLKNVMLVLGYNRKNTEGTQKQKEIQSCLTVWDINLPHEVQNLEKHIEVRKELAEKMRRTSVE

Usually inhibition stands for the relative decrease from the control value, in per cent. Turning to `CN(C(=O)CN1CCOCC1)c1ccc2sc3c(-c4cccc5c(=O)cc(N6CC7CCC(C6)O7)oc45)cccc3c2c1` [NU5455], the inhibition at 1 µM was -4%.
